# Laboratory results published in the METLIN SMRT retention time set (Domingo-Almenara et al. 2019).
# Test: gradient 5% acetonitrile 3 min, to 50% in 2 min, to 85% in 15 min, held 3 min, 100 µL/min
# Conditions: column: Zorbax Extend-C18 2.1 x 50 mm; eluents: water / acetonitrile, 0.1% formic acid
# Outline: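 Retention times of pure standards were taken from adduct peaks that were selected by computer and manually inspected. Over 3 months, mixtures of ~100 molecules were run by HPLC–quadrupole time-of-flight mass spectrometry in positive and negative ionization mode. The Zorbax Extend-C18 column (2.1 × 50 mm, 1.8 μm) ran at 100 μL/min in water and acetonitrile, each containing 0.1% formic acid, with 40 μL dead volume and 900 μL dwell volume.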
row,SMILES,RP-LC retention time
1,CCCc1noc(-c2ccc(-n3ncc(C(=O)N4CCCC(C)C4)c3C)nc2)n1 (centres undefined),1130 s
2,CCc1cc(C(=O)Nc2ccccc2F)nc2ccnn12,1060 s
3,O=C(Cn1cnc2nc(N3CCCC(C(=O)NC4CC4)C3)sc2c1=O)NC1CCCC1 (centres undefined),628 s
4,CCOc1ccc(-c2noc(Cn3cnc4c(cnn4-c4ccc(CC)cc4)c3=O)n2)cc1OC,1070 s
5,Cc1cccn2cc(-c3cccc(S(=O)(=O)N4CC(C)OC(C)C4)c3)nc12 (centres undefined),671 s
6,O=C(NCc1csc(-c2ccccc2)n1)C1CCN(C(=O)Nc2ccccc2)CC1,766 s
7,CCN(C(=O)CN1C(=O)CCCc2cc(S(=O)(=O)N3CCC(C)CC3)ccc21)c1ccccc1,1050 s
8,Cc1cccc(NC(=O)N2CCc3c(c(-c4nc(C5CC5)no4)nn3C)C2)c1,854 s
9,CN(Cc1ccoc1)C(=O)Nc1ccccc1,785 s
10,CCCn1nc(CNC(=O)c2ccoc2)c2ccccc21,789 s
11,O=C(NCCc1nnc2ccc(SCc3ccccn3)nn12)c1ccccc1,575 s
12,Cc1ccc(N2CCC(N)C2=O)cc1C (centres undefined),584 s
13,CCOc1cccc(-c2noc(-c3nn(-c4cccc(F)c4)ccc3=O)n2)c1,978 s
14,NS(=O)(=O)c1ccc(CCNC(=O)C2CN(c3nc4c(F)cccc4s3)C2)cc1,660 s
15,O=C(Cn1nc(C(=O)N2CCCC2)c2ccccc21)N1CCN(Cc2ccc3c(c2)OCO3)CC1,622 s
16,COc1ccccc1-c1noc(Cn2cnc3c(cnn3-c3ccc(Cl)cc3)c2=O)n1,1010 s
17,O=C(CCc1c[nH]c2ccccc12)N1CC(n2cc(COCC3CC3)nn2)C1,719 s
18,CCN(CC)S(=O)(=O)c1ccc(-n2cnc(C(=O)NCc3ccc(OC)c(OC)c3)c2)cc1,766 s
19,Cc1cc(C)cc(Nc2nc(C)cc(=O)n2CC(=O)Nc2ccc(Br)cc2)c1,966 s
20,CCc1ccc(-c2cc3c(=O)n(Cc4noc(CN5CCCCC5CC)n4)ccn3n2)cc1 (centres undefined),778 s
21,O=C(NCc1ccc(F)cc1F)c1ccc2c(c1)ncn2CCN1CCCC1,576 s
22,CCN(CC)c1ncc2c(n1)CCC(C(=O)Nc1ccc(OC)cc1C)C2 (centres undefined),674 s
23,O=C1NCCOCCN(C(=O)COc2ccccc2)[C@H]2CCC[C@@H]12,683 s

row,SMILES,RP-LC retention time
1,Cc1noc2nc(CCC(=O)NCc3ccc(Cl)cc3)nc(N3CCCC3)c12,819 s
2,O=C(Cn1nc(C(=O)N2CCCC2)c2ccccc21)N1CCN(c2cccc(C(F)(F)F)c2)CC1,983 s
3,CCCNC(=O)C1CCN(S(C)(=O)=O)c2cc(Cl)ccc2O1 (centres undefined),747 s
4,O=C(C1CCN(c2nnc(-n3cccc3)s2)CC1)N1CCN(c2ncccn2)CC1,738 s
5,Cc1ccc(N2C=NS(=O)(=O)c3cccnc32)cc1F,815 s
6,CN(C)C(=O)c1ccc2c(c1)nc(CN1CCN(C(=O)c3ccccc3)CC1)n2C,597 s
7,CCN1CCN(CCCNc2ccc(-c3nc(-c4ccc(C)cc4)no3)cn2)CC1,646 s
8,O=C(NCc1ccccc1)c1ccc2ccnc(N3CCN(C(=O)c4ccco4)CC3)c2c1,673 s
9,CN1CCN(S(=O)(=O)c2ccc(C#N)cc2)CC1c1ccccc1 (centres undefined),528 s
10,CCn1nc(CNC(=O)C(C)Oc2ccccc2OC)c2ccccc21 (centres undefined),810 s
11,Cc1ccccc1-c1cn2ccn(-c3ccc4c(c3)CCC4)c(=O)c2n1,962 s
12,Cc1ccccc1Nc1c(-c2ccccc2O)nc2cccc(C)n12,676 s
13,COc1ccc(-c2nnc(-c3ccc(OC)c(S(=O)(=O)N4CCC(C)CC4)c3)o2)cc1OC,990 s
14,CSc1ccc(CNC(=O)Cn2cc(-c3nnco3)c3ccccc32)cc1,805 s
15,O=C(NCCCN1CCCCC1)c1ccc2c(c1)NC(=O)C1CCCCN21 (centres undefined),600 s
16,COc1cccc(C(=O)N2CCC(c3cc(N)on3)CC2)c1OC,639 s
17,CCc1ccc(NC(=O)CN2C(=O)C3CCCCN3c3ccc(S(=O)(=O)N(C)C)cc32)cc1 (centres undefined),817 s
18,O=S(=O)(Cc1ccc(F)cc1Cl)N1CCc2nc(-c3ccc(F)cc3)ncc2C1,1100 s
19,Cc1nnc([C@@H]2CC(F)(F)CN2C(=O)COc2ccc(F)cc2)o1,736 s
20,Cc1ccc(NC(=O)Cn2nc(N3CCCC(C)C3)c3ccccc3c2=O)cc1 (centres undefined),1140 s
21,CCc1noc(C2(NC(=O)c3ccc(Br)cc3)CCCCC2)n1,1030 s
22,CC(C)c1cc(C2CCCN2C(=O)c2ccc3c(c2)OCO3)on1 (centres undefined),824 s
23,C=CCn1c(=O)c2ccccc2n(Cc2nc(-c3cc(OC)cc(OC)c3)no2)c1=O,1020 s

row,SMILES,RP-LC retention time
1,O=C(Nc1ccc2c(c1)OCO2)c1coc(NC(=O)c2ccco2)n1,651 s
2,O=C(O)c1cn(-c2ccccc2F)nn1,650 s
3,O=C(c1ccsc1)N1CCC2(CC1)NC(=O)N(Cc1ccccc1)C2=O,754 s
4,Cc1ccc(C(=O)N2CCCC2c2nc(-c3cccc(Cl)c3)no2)cc1C (centres undefined),1200 s
5,Cc1ccc(CCNC(=O)C2CCCN(c3nnc(C)c4c(C)n(-c5ccc(C)cc5)nc34)C2)cc1 (centres undefined),815 s
6,COc1ccc(OC)c(S(=O)(=O)N2CCCC(C)(C(=O)NCc3cccc(F)c3)C2)c1 (centres undefined),916 s
7,Cc1ccc(C)c(-c2csc(Nc3ccc(F)cn3)n2)c1,1150 s
8,CC(C)C(=O)N1CCCn2nc(-c3cccnc3)cc2C1,579 s
9,Cc1ccc(NC(=O)N2CCCC(C)(C(=O)NCc3ccccc3C)C2)c(Cl)c1 (centres undefined),984 s
10,CCN1CCCCc2cc(C(=O)NC3CCS(=O)(=O)C3)sc21 (centres undefined),790 s
11,Cn1cnc(S(=O)(=O)N2CC(c3nc(-c4ccncc4)no3)C2)c1,590 s
12,COc1ccc(-n2c(=O)n(C)c(=O)c3cc(C(=O)Nc4ccccc4OC)cnc32)cc1,892 s
13,CCCn1c(=O)c(-c2ccc(C(=O)NC(C)C)cc2)nc2cccnc21,894 s
14,O=C(CSc1ncnc2c1[nH]c1ccccc12)N1CCc2ccccc2C1,842 s
15,COc1cc(-c2nc(Cn3c(C)nc4ccccc4c3=O)no2)cc(OC)c1OC,801 s
16,COc1ccc(N2CC(c3nc(-c4cccc(-c5ccnn5C)c4)no3)CC2=O)cc1 (centres undefined),844 s
17,Cc1cccc(CN2CCCn3nc(C(=O)NCCN4CCOCC4)cc3C2=O)c1,621 s
18,CC(=O)c1ccc(NC(=O)Cn2c(-c3ccc(Cl)cc3)nc(C)cc2=O)cc1,1040 s
19,COc1ccc(Br)cc1CNC(=O)CN1C(=O)CCCc2ccccc21,892 s
20,Cc1nnc(-c2ccc3ccn(CC(=O)Nc4cccc(C)c4C)c3c2)o1,798 s
21,CCN(CC)CCNC(=O)Cn1c2ccccc2c2cnn(C)c(=O)c21,599 s
22,CCS(=O)(=O)N1CCCc2cc(C(=O)NCC(C)C)ccc21,808 s
23,COc1ccc(-c2nnc(-c3ccccc3)o2)cc1S(=O)(=O)N(C)C,840 s

row,SMILES,RP-LC retention time
1,COc1ccc(-c2cc(C(=O)N3CCN(S(=O)(=O)c4ccc(Cl)cc4)CC3)[nH]n2)cc1,909 s
2,CCC(C(=O)N1CCN(c2ccccn2)CC1)n1nc(C)c2sc3ccccc3c2c1=O (centres undefined),705 s
3,O=C1CCCCC(Cc2ccccc2)(C(=O)NCCc2ccccc2)N1 (centres undefined),806 s
4,Cc1cc(S(=O)(=O)N2CC(Cc3nncn3C3CCCC3)C2)ccc1F,747 s
5,CCn1c(C(=O)NCCc2ccc(S(N)(=O)=O)cc2)cc2sc(Cl)cc21,860 s
6,CCN1C(=O)C2CCC(=O)N2c2ccc(C(=O)NC3CCCC3)cc21 (centres undefined),692 s
7,CCc1nc(-n2cccc2)sc1C(=O)Nc1ccc(Cl)cc1,1180 s
8,CCCNC(=O)c1cc(-c2ccncc2)cn1Cc1ccccc1C,690 s
9,CCC(C(=O)N1CCN(c2ccccn2)CC1)n1c(C)c2cnn(-c3ccccc3)c(=O)c2c1C (centres undefined),632 s
10,CN1c2cc(C(=O)NC3CCCCC3)ccc2C(=O)N2CCCCC21 (centres undefined),824 s
11,O=C(Nc1ccccc1F)C1CCN(S(=O)(=O)c2cc(-c3noc(C4CCC4)n3)cs2)CC1,958 s
12,CN1C(=O)C2CCCCN2c2ccc(C(=O)N3CCC4(CC3)OCCO4)cc21 (centres undefined),750 s
13,O=C(NCc1ccc(F)cc1)N1CCC(n2c(-c3ccco3)nc3cccnc32)C1 (centres undefined),730 s
14,CCCCNC(=O)C1CCCN(C(=O)c2cc(C)cc(C)c2)C1 (centres undefined),828 s
15,COc1ccc(-c2ccc3nc(N4CCC(C(=O)N(C)C)CC4)sc3n2)cc1,828 s
16,Cc1ccc(Nc2cc(C)nc(N3CCN(C(=O)c4ccco4)CC3)n2)cc1,590 s
17,O=C1NC(c2cccc3ccccc23)Nc2ccccc21 (centres undefined),776 s
18,Cc1sc2ncnc(SCC(=O)Nc3ccc(S(N)(=O)=O)cc3)c2c1C,730 s
19,Nc1ccc(CCNc2ncnc3c2ncn3C2OC(CO)C(O)C2O)cc1 (centres undefined),540 s
20,N#Cc1ccc(C(=O)N2CCCC2c2nc(-c3ccc(F)cc3F)no2)cc1 (centres undefined),921 s
